According to ChEMBL document CHEMBL4376864, “Binding Loop Substitutions in the Cyclic Peptide SFTI-1 Generate Potent and Selective Chymase Inhibitors” (J Med Chem, 2020):
Bridge positions count the residues as written; N and C are the ends. Square brackets hold non-standard residues; d marks the D form. Peptide text beside a SMILES is read from it. Phe(4-Cl) = N[C@@H](Cc1ccc(Cl)cc1)C(=O)O; Phe(4-I) = N[C@@H](Cc1ccc(I)cc1)C(=O)O; Phe(4-Me) = Cc1ccc(C[C@H](N)C(=O)O)cc1

Key:
Chymase [1] = molecular target: T1, Chymase (Homo sapiens, UniProt P23946); experiment: Inhibition of recombinant human chymase expressed in Pichia pastoris X-33 cells using NleTDY-pNA as substrate assessed as cleavage of pNA at pH 7.2 and 298 K by spectrophotometry analysis
T1 sequence (P23946 whole entry): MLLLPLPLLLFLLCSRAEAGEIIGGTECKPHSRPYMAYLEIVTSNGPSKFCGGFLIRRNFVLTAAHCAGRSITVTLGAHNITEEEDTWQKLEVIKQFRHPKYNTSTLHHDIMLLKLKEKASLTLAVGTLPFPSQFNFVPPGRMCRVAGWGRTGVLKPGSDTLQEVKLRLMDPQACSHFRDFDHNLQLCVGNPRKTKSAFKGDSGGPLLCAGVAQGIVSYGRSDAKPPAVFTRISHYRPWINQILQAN

Cathepsin G = molecular target: T2, Cathepsin G (Homo sapiens, UniProt P08311); experiment: Inhibition of human cathepsin G using Suc-AAPF-MCA as substrate at pH 7.2 and 298 K measured every 60 secs for 600 secs
T2 sequence (P08311 whole entry): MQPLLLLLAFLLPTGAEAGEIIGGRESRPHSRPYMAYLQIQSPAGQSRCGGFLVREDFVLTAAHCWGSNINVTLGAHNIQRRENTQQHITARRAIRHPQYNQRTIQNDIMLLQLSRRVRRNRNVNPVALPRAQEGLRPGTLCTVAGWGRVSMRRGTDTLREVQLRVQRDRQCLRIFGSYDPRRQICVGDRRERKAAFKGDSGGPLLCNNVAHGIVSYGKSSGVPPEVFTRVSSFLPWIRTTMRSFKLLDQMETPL

Chymotrypsin = Chymotrypsin (Homo sapiens, UniProt Q99895+P17538+P40313+Q6GPI1); experiment: Inhibition of human chymotrypsin using Suc-AAPF-MCA as substrate at pH 8 and 298 K measured every 60 secs for 600 secs; format: protein assay
Homo sapiens [2] = species: Homo sapiens; experiment: Selectivity index, ratio of Ki for human cathepsin G using Suc-AAPF-MCA as substrate to Ki for recombinant human chymase expressed in Pichia pastoris X-33 cells using NleTDY-pNA as substrate
Homo sapiens [3] = species: Homo sapiens; experiment: Selectivity index, ratio of Ki for human chymotrypsin using Suc-AAPF-MCA as substrate to Ki for recombinant human chymase expressed in Pichia pastoris X-33 cells using NleTDY-pNA as substrate
Kallikrein-7 = Kallikrein-7 (Homo sapiens, UniProt P49862); experiment: Inhibition of recombinant human KLK7 expressed in Pichia pastoris X-33 using KHLY-pNA as substrate at pH 8 and 298 K measured every 60 secs for 600 secs
Kallikrein-7, sequence (P49862 whole entry): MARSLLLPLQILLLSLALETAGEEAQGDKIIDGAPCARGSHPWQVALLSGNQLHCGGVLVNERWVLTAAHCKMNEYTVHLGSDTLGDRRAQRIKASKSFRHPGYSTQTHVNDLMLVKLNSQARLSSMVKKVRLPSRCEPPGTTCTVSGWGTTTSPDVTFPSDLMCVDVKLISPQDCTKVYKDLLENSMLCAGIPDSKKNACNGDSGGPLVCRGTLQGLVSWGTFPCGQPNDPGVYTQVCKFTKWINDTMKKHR

Neutrophil elastase = molecular target: T3, Neutrophil elastase (Homo sapiens, UniProt P08246); experiment: Inhibition of human neutrophil elastase using MeOSuc-AAPV-MCA as substrate at pH 7.2 and 298 K measured every 60 secs for 600 secs
T3 sequence (P08246 whole entry): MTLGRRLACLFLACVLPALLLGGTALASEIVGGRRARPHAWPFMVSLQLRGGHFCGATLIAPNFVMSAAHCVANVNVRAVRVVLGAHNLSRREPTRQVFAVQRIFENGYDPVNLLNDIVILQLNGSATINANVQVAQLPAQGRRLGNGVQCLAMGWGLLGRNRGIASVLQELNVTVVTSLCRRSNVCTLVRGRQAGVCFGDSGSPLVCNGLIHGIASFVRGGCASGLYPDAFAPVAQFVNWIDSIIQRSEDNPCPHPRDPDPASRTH

[4] = Inhibition of human cationic trypsin using Boc-VPR-MCA as substrate at pH 8 and 298 K measured every 60 secs for 600 secs
Prothrombin = Prothrombin (Homo sapiens, UniProt P00734); experiment: Inhibition of human thrombin using Boc-VPR-MCA as substrate at pH 8 and 298 K measured every 60 secs for 600 secs
Coagulation factor XII = molecular target: T4, Coagulation factor XII (Homo sapiens, UniProt P00748); experiment: Inhibition of human coagulation factor 12a using Ac-QRFR-pNA as substrate at pH 8 and 298 K measured every 60 secs for 600 secs
T4 sequence (P00748 whole entry): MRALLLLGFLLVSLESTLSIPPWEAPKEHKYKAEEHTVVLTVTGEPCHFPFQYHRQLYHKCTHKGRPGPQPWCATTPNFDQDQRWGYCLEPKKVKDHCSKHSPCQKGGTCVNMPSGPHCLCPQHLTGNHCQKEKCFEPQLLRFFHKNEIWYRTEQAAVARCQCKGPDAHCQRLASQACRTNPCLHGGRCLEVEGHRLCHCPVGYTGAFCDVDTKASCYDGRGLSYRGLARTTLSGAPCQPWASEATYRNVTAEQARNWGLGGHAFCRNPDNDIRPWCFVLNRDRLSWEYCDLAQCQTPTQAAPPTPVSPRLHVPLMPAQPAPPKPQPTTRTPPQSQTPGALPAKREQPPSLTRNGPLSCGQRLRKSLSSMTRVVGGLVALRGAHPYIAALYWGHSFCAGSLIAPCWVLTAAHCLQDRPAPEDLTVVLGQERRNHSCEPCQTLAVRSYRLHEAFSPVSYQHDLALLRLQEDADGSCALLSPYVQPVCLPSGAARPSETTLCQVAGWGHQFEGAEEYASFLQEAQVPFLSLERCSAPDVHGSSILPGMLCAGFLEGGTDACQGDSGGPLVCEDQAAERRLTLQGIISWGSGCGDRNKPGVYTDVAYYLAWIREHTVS

Chymase [5] = molecular target: T1, Chymase; experiment: Inhibition of recombinant human chymase expressed in Pichia pastoris X-33 cells assessed as decrease in angiotensin 1 cleavage to angiotensin 2 incubated for 120 mins at 298 K by UPLC-MS analysis

Ki (Chymase [1])	Ki (Cathepsin G)	Ki (Chymotrypsin)	IC50 (Kallikrein-7)	IC50 (Neutrophil elastase)	IC50 [4]	IC50 (Prothrombin)	IC50 (Coagulation factor XII)	IC50 (Chymase [5])	IC50 (Chymotrypsin)	SMILES	Ratio Ki (Homo sapiens [2])	Ratio Ki (Homo sapiens [3])
0.0066 µM	0.054 µM	2.9 µM								N=C(N)NCCC[C@@H]1NC(=O)CNC(=O)[C@H](CC(=O)O)NC(=O)[C@@H]2CCCN2C(=O)[C@H](Cc2ccccc2)NC(=O)[C@@H]2CSSC[C@H](NC1=O)C(=O)N[C@@H](CCC(N)=O)C(=O)N[C@@H](Cc1ccc(O)cc1)C(=O)N[C@@H](CO)C(=O)N[C@@H](CCC(=O)O)C(=O)N1CCC[C@H]1C(=O)N1CCC[C@H]1C(=O)N[C@@H](CCC(=O)O)C(=O)N2 (cyclo(CFPDGRCQYSEPPE); disulfide 1-7)	8.2	440
0.0018 µM	0.15 µM	0.33 µM	> 10 µM	> 10 µM	> 10 µM	> 10 µM	> 10 µM	0.033 µM		N=C(N)NCCC[C@@H]1NC(=O)CNC(=O)[C@H](CC(=O)O)NC(=O)[C@@H]2CCCN2C(=O)[C@H](Cc2ccccc2)NC(=O)[C@@H]2CSSC[C@H](NC1=O)C(=O)N[C@@H](CCC(N)=O)C(=O)N[C@@H](Cc1ccc(Cl)cc1)C(=O)N[C@@H](CO)C(=O)N[C@@H](CCC(=O)O)C(=O)N1CCC[C@H]1C(=O)N1CCC[C@H]1C(=O)N[C@@H](CCC(=O)O)C(=O)N2 (cyclo(CFPDGRCQ[Phe(4-Cl)]SEPPE); disulfide 1-7)	83	
0.0022 µM	0.16 µM	1.5 µM	> 10 µM	> 10 µM	> 10 µM	> 10 µM	> 10 µM			Cc1ccc(C[C@@H]2NC(=O)[C@H](CCC(N)=O)NC(=O)[C@@H]3CSSC[C@H](NC(=O)[C@H](CCC(=O)O)NC(=O)[C@@H]4CCCN4C(=O)[C@@H]4CCCN4C(=O)[C@H](CCC(=O)O)NC(=O)[C@H](CO)NC2=O)C(=O)N[C@@H](Cc2ccccc2)C(=O)N2CCC[C@H]2C(=O)N[C@@H](CC(=O)O)C(=O)NCC(=O)N[C@@H](CCCNC(=N)N)C(=O)N3)cc1 (cyclo(CFPDGRCQ[Phe(4-Me)]SEPPE); disulfide 1-7)	72 to 80	180
0.019 µM	1.2 µM		> 10 µM	> 10 µM	> 10 µM	> 10 µM	> 10 µM	0.29 µM	> 10 µM	N=C(N)NCCC[C@@H]1NC(=O)CNC(=O)[C@H](CC(=O)O)NC(=O)[C@@H]2CCCN2C(=O)[C@H](Cc2ccccc2)NC(=O)[C@@H]2CSSC[C@H](NC1=O)C(=O)N[C@@H](CCC(N)=O)C(=O)N[C@@H](Cc1ccc(I)cc1)C(=O)N[C@@H](CO)C(=O)N[C@@H](CCC(=O)O)C(=O)N1CCC[C@H]1C(=O)N1CCC[C@H]1C(=O)N[C@@H](CCC(=O)O)C(=O)N2 (cyclo(CFPDGRCQ[Phe(4-I)]SEPPE); disulfide 1-7)		
